Test results reported in US11648254B2 (Kumquat Biosciences Inc., priority 2021, dated 2023).
Where two headings read alike, the source gives them in different places.

Legend:
[1] = Metabolic (microsomal) stability assay; format: in vitro ADME; conditions: mouse liver microsomes, T1/2; read-out: DMPK-invitro-metabolic Stability (Mouse T1/2)
Text: Example 12: Metabolic (Microsomal) Stability Assay

[2] = tested on: MIA PaCa-2 cells (K-Ras G12C); assay: Ras-SOS cellular growth inhibition assay (CellTiter-Glo, 3D); format: cell-based; conditions: Homo sapiens
In short: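 Growth read by CellTiter-Glo luminescence about 5 days after dosing with 3-fold dilutions (9 points), added one day post-seeding. Cells: MIA PaCa-2, 3D culture on ultra-low-attachment surface, medium DMEM/Ham's F12 plus 10% FCS and 2.5% horse serum; IC50 by four-parameter fit.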

SOS1 = SOS1 (Homo sapiens (Human), UniProt Q07889); assay: Ras-SOS interaction assay (HTRF); format: biochemical
SOS1, sequence (Q07889 564-1049): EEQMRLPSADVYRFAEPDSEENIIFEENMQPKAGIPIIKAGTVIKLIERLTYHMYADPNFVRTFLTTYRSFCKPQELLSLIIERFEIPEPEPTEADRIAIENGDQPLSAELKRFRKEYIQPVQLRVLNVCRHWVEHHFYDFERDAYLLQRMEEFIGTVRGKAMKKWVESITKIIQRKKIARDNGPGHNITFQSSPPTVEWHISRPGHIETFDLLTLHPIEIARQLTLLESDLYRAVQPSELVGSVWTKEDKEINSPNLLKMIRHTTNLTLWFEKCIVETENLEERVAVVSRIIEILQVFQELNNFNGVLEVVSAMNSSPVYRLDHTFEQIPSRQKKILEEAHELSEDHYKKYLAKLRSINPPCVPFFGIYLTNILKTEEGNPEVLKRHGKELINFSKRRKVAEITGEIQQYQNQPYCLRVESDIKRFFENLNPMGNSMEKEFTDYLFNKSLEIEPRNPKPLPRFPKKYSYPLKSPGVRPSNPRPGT

[3] = tested on: NCI-H1975 cells (EGFR T790M L858R); assay: EGFR-SOS cellular inhibition assay (CellTiter-Glo, 3D); format: cell-based; conditions: Homo sapiens
[4] = In vitro plasma protein binding (PPB); format: in vitro ADME; conditions: percentage of free/unbound compound
[5] = MIA PaCa-2, 120 h, MIA PaCa-2, 3D proliferation, about 5 days, read-out: Bio-Cell-Prolif-3D (MiaPaca2 IC50)
[6] = MIA PaCa-2, MIA PaCa-2, read-out: IC50 in inhibiting MIA PaCa-2 cell growth
[7] = K-RasG13D utilized, read-out: IC50 inhibition of SOS
[8] = 120 h, NCI-H1975, 3D proliferation, about 5 days, read-out: Bio-Cell-Prolif-3D (H1975 IC50)
[9] = NCI-H1975, EGFR T790M L858R, read-out: IC50 in inhibiting growth of NCI-H1975 cell line
[10] = K-RasG13D, read-out: IC50 value against SOS1

| half-life [1] [h] | IC50 [2, 5] [nM] | IC50 [2, 6] [nM] | IC50 (SOS1; [7]) [nM] | IC50 [3, 8] [nM] | IC50 [3, 9] [nM] | IC50 (SOS1; [10]) [nM] | DMPK-invitro-PPB (Mouse Unbound) [%] [4] [%] | SMILES |
| --- | --- | --- | --- | --- | --- | --- | --- | --- |
| > 3.33 | ≤ 1000 | < 500 | < 100 | ≤ 1000 | < 500 | – | – | Cc1nc(N[C@H](C)c2cccc(C(F)(F)C(C)(C)O)c2F)c2cc(C3(C#N)CC3)c(Cl)nc2n1 [Compound 170, (R)-1-(7-chloro-4-((1-(3-(1,1-difluoro-2-hydroxy-2-methylpropyl)-2-fluorophenyl)ethyl)amino)-2-methylpyrido[2,3-d]pyrimidin-6-yl)cyclopropane-1-carbonitrile] |
| > 3.33 | ≤ 1000 | < 500 | < 100 | ≤ 1000 | < 500 | < 50 | – | Cc1nc(N[C@H](C)c2cccc(C(F)(F)C(C)(C)O)c2)c2cc(C3(C#N)CC3)c(Cl)nc2n1 [Compound 193, (R)-1-(7-chloro-4-((1-(3-(1,1-difluoro-2-hydroxy-2-methylpropyl)phenyl)ethyl)amino)-2-methylpyrido[2,3-d]pyrimidin-6-yl)cyclopropane-1-carbonitrile] |
| 0.352 | ≤ 1000 | < 500 | < 100 | ≤ 1000 | – | < 50 | – | Cc1nc(N[C@H](C)c2cccc(C(F)(F)CO)c2F)c2cc(C3(C#N)CC3)c(Cl)nc2n1 [Compound 195, (R)-1-(7-chloro-4-((1-(3-(1,1-difluoro-2-hydroxyethyl)-2-fluorophenyl)ethyl)amino)-2-methylpyrido[2,3-d]pyrimidin-6-yl)cyclopropane-1-carbonitrile] |
| 2.57 | ≤ 1000 | – | < 100 | ≤ 1000 | < 500 | < 50 | – | C[C@@H](Nc1ncnc2nc(Cl)c(C3(C#N)CC3)cc12)c1cccc(C(F)F)c1F [Compound 200, (R)-1-(7-chloro-4-((1-(3-(difluoromethyl)-2-fluorophenyl)ethyl)amino)pyrido[2,3-d]pyrimidin-6-yl)cyclopropane-1-carbonitrile] |
| > 3.33 | ≤ 1000 | < 500 | < 100 | ≤ 1000 | < 500 | < 50 | – | C[C@@H](Nc1ncnc2nc(Cl)c(C3(C#N)CC3)cc12)c1cccc(C(F)(F)[C@@H](C)O)c1 [Compound 214, 1-(7-chloro-4-(((R)-1-(3-((R)-1,1-difluoro-2-hydroxypropyl)phenyl)ethyl)amino)pyrido[2,3-d]pyrimidin-6-yl) cyclopropane-1-carbonitrile] |
| 1.65 | ≤ 1000 | < 500 | < 100 | ≤ 1000 | < 500 | < 50 | – | Cc1nc(N[C@H](C)c2cccc(C(F)(F)[C@@H](C)O)c2)c2cc(C3(C#N)CC3)c(Cl)nc2n1 [Compound 219, 1-(7-chloro-4-(((R)-1-(3-((R)-1,1-difluoro-2-hydroxypropyl)phenyl)ethyl)amino)-2-methylpyrido[2,3-d]pyrimidin-6-yl)cyclopropane-1-carbonitrile] |
| 1.67 | ≤ 1000 | < 500 | < 100 | ≤ 1000 | < 500 | < 50 | – | Cc1nc(N[C@H](C)c2cccc(C(F)(F)[C@H](C)O)c2)c2cc(C3(C#N)CC3)c(Cl)nc2n1 [Compound 220, 1-(7-chloro-4-(((R)-1-(3-((S)-1,1-difluoro-2-hydroxypropyl)phenyl)ethyl)amino)-2-methylpyrido[2,3-d]pyrimidin-6-yl)cyclopropane-1-carbonitrile] |
| – | ≤ 1000 | < 500 | < 100 | ≤ 1000 | < 500 | < 50 | 6.33 | COc1nc2nc(C)nc(N[C@H](C)c3cccc(C(F)(F)C(C)(C)O)c3F)c2cc1N1CCN(C(C)C)CC1 [Compound 322, (R)-1,1-difluoro-1-(2-fluoro-3-(1-((6-(4-isopropylpiperazin-1-yl)-7-methoxy-2-methylpyrido[2,3-d]pyrimidin-4-yl)amino)ethyl)phenyl)-2-methylpropan-2-ol] |
| – | ≤ 1000 | < 500 | < 100 | ≤ 1000 | < 500 | < 50 | 12.8 | COc1nc2nc(C)nc(N[C@H](C)c3cccc(C(F)(F)C(C)(C)O)c3)c2cc1N1CCN(C(C)C)CC1 [Compound 325, (R)-1,1-difluoro-1-(3-(1-((6-(4-isopropylpiperazin-1-yl)-7-methoxy-2-methylpyrido[2,3-d]pyrimidin-4-yl)amino)ethyl)phenyl)-2-methylpropan-2-ol] |
| – | ≤ 1000 | – | < 100 | ≤ 1000 | < 500 | < 50 | 15.32 | COc1nc2ncnc(N[C@H](C)c3cccc(C(F)F)c3F)c2cc1N1CCS(=O)(=O)CC1 [Compound 339, (R)-4-(4-((1-(3-(difluoromethyl)-2-fluorophenyl)ethyl)amino)-7-methoxypyrido[2,3-d]pyrimidin-6-yl)thiomorpholine 1,1-dioxide] |
| – | ≤ 1000 | – | < 100 | ≤ 1000 | < 500 | < 50 | 1.03 | COc1nc2ncnc(N[C@H](C)c3cccc(C(F)(F)F)c3C)c2cc1C1CCN(C(C)C)CC1 [Compound 348, (R)-6-(1-isopropylpiperidin-4-yl)-7-methoxy-N-(1-(2-methyl-3-(trifluoromethyl)phenyl)ethyl)pyrido [2,3-d]pyrimidin-4-amine] |
| – | ≤ 1000 | < 500 | < 100 | ≤ 1000 | < 500 | < 50 | 0.22 | CCN1CCC(c2cc3c(N[C@H](C)c4cccc(C(F)(F)F)c4C)nc(C)nc3nc2OC)CC1 [Compound 351, (R)-6-(1-ethylpiperidin-4-yl)-7-methoxy-2-methyl-N-(1-(2-methyl-3-(trifluoromethyl)phenyl)ethyl)pyrido [2,3-d]pyrimidin-4-amine] |
| – | ≤ 1000 | < 500 | < 100 | ≤ 1000 | < 500 | < 50 | 0.74 | CCN1CCC(c2cc3c(N[C@H](C)c4cccc(C(F)(F)F)c4C)ncnc3nc2OC)CC1 [Compound 353, (R)-6-(1-ethylpiperidin-4-yl)-7-methoxy-N-(1-(2-methyl-3-(trifluoromethyl)phenyl)ethyl)pyrido [2,3-d]pyrimidin-4-amine] |
| – | ≤ 1000 | < 500 | – | ≤ 1000 | – | < 50 | 2.93 | COc1nc2ncnc(N[C@H](C)c3cccc(C(F)(F)F)c3C)c2cc1C1CCS(=O)(=O)CC1 [Compound 373, (R)-4-(7-methoxy-4-((1-(2-methyl-3-(trifluoromethyl)phenyl)ethyl)amino)pyrido[2,3-d]pyrimidin-6-yl)tetrahydro-2H-thiopyran 1,1-dioxide] |
| – | ≤ 1000 | < 500 | – | ≤ 1000 | < 500 | < 50 | 0.45 | COc1nc2ncnc(N[C@H](C)c3cccc(C(F)(F)F)c3C)c2cc1C1CCN(C2CCOCC2)CC1 [Compound 374, (R)-7-methoxy-N-(1-(2-methyl-3-(trifluoromethyl)phenyl)ethyl)-6-(1-(tetrahydro-2H-pyran-4-yl)piperidin-4-yl)pyrido[2,3-d]pyrimidin-4-amine] |
| – | ≤ 1000 | < 500 | < 100 | ≤ 1000 | < 500 | < 50 | 2.67 | COc1nc2ncnc(N[C@H](C)c3cccc(C(F)(F)F)c3F)c2cc1C1CCS(=O)(=O)CC1 [Compound 375, (R)-4-(4-((1-(2-fluoro-3-(trifluoromethyl)phenyl)ethyl)amino)-7-methoxypyrido[2,3-d]pyrimidin-6-yl)tetrahydro-2H-thiopyran 1,1-dioxide] |
| – | ≤ 1000 | < 500 | < 100 | ≤ 1000 | < 500 | < 50 | 0.91 | COc1nc2ncnc(N[C@H](C)c3cccc(C(F)(F)F)c3C)c2cc1N1CCN(C(C)C)CC1 [Compound 376, (R)-6-(4-isopropylpiperazin-1-yl)-7-methoxy-N-(1-(2-methyl-3-(trifluoromethyl)phenyl)ethyl)pyrido [2,3-d]pyrimidin-4-anune] |
| – | ≤ 1000 | < 500 | < 100 | ≤ 1000 | < 500 | < 50 | 0.14 | COc1nc2nc(C)nc(N[C@H](C)c3cccc(C(F)(F)F)c3C)c2cc1N1CCN(C2CCOCC2)CC1 [Compound 378, (R)-7-methoxy-2-methyl-N-(1-(2-methyl-3-(trifluoromethyl)phenyl)ethyl)-6-(4-(tetrahydro-2H-pyran-4-yl)piperazin-1-yl)pyrido[2,3-d]pyrimidin-4-amine] |
